Common to all, as to type: biochemical
Holding throughout (conditions): HTRF TK kit
On the technique in general: Time-resolved FRET reads energy transfer from a long-lived donor to a nearby acceptor.

For one assay, the target named is T1, EGFR (Homo sapiens, UniProt P00533).
T1 construct: purchased Carna 08-115
In words: HTRF kinase activity inhibition assay, EGFR. The text has this: (§1) In this assay, the HTRF TK Kit (Catalog No. 62TKOPEC) provided by Cisbio was used to detect the inhibitory activity of compounds on BTK kinase and BTK C481S kinase and the selectivity of compounds relative to EGFR, ITK and TEC kinases.
(§2) Reagents and consumables: BTK kinase (Invitrogen, Catalog No. PV3587), BTK C481S (Carna, Product No. 08-547), ITK (Carna, Product No. 08-181), EGFR (Carna, Product No. 08-115), TEC (Carna, Product No. 08-182), HTRF-TK kit (Cisbio, Product No. 62TKOPEC), MgCl2 (Sigma, Product No. M1028), MnCl2 (Sigma, Product No. M1787), DTT (Sigma, Product No. D0632), ATP (Sigma, Product No. A7699-1 g), DMSO (Sigma, Product No. D2650), 384-well plate (PE, Product No. 6008280).
(§3) The entire operation steps were carried out on ice, and the total reaction volume was 10 μL. The compound (4 μL), substrate and ATP (4 μL), kinase (2 μL) were added in sequence to a 384-well plate, and shaked for 30 seconds. After an appropriate time at room temperature, the detection reagent was added. After 1 hour at room temperature, the plate was detected with a microplate reader. The specific steps were as follows: • a) 1× kinase buffer solution required for kinase detection was calculated according to the amount of the detection compound, and prepared as needed; • b) compounds with 2.5×working concentration were prepared, the 100 times gradient concentration solution of compounds was diluted by 4 μL to the desired concentration, mixed well, and added to each well at 4 μL per well; • c) 5×working concentration of substrate and ATP were prepared, mixed in a ratio of 1:1 before adding to a 384-well plate, and added to each well at 4 μL per well; • d) 5×working concentration of kinase was prepared, and 2 μL was added to each well; • e) the plate was shaked on a microplate oscillator for 30 seconds, sealed with a sealing membrane, and reacted at room temperature for an appropriate time; • f) 4×working concentrations of streptavidin XL-665 and TK antibody-cryptate compound were prepared, mixed in a ratio of 1:1 before adding to a 384-well plate, and added to each well at 10 μL per well; • g) the plate was read after reacting at room temperature for 1 hour; • h) the wells with only substrate, ATP and 1% DMSO added but no kinase were blank control wells, and the wells with only substrate, ATP, 1% DMSO and kinase were positive control wells.
(§4) Readings: The values of 620 nm (cryptate) and 665 nm (XL665) were read with a BioTek Synerg Neo2 microplate reader, the ratio of 665/620 per well was calculated, and the data were exported. Data analysis: IC50 was calculated using GraphPad Prism 7.0 software. The following nonlinear fitting formula was used to obtain the IC50 (half inhibitory concentration) of compounds:
(§5) [formula] • X: Compound concentration log value • Y: Inhibition rate (% inhibition)
(§6) The kinase inhibition rate (% inhibition rate) was calculated as: […]

The target of the next assay is T2, TEC (Homo sapiens, UniProt P42680).
T2 construct: purchased Carna 08-182
T2 sequence (P42680 1-631): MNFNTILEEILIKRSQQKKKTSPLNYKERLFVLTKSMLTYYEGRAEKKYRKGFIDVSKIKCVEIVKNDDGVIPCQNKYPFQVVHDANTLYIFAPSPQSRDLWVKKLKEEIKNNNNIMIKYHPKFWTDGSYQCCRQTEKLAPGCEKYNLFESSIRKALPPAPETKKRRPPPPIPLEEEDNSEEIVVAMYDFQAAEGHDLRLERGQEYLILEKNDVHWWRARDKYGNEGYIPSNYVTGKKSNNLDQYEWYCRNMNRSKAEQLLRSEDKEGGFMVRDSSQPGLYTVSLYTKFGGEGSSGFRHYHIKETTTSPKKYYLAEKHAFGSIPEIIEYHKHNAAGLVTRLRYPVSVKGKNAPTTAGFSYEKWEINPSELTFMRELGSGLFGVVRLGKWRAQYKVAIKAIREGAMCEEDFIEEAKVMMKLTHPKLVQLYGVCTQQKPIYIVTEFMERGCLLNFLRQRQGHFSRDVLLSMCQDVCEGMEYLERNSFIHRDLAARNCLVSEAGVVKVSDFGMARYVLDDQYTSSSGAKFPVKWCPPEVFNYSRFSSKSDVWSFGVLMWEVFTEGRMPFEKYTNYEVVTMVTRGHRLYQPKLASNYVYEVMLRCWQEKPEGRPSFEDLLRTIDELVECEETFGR
Nature of the assay: HTRF kinase activity inhibition assay, TEC.
Source text: as §1, §2, §3, §4, §5, §6

Another assay concerns the target T3, BTK kinase (Homo sapiens, UniProt Q06187).
T3 construct: purchased Invitrogen PV3587
In words: HTRF kinase activity inhibition assay, BTK.
Source text: as §1, §2, §3, §4, §5, §6

Usually IC50 stands for the concentration at which inhibition is half-maximal.

T1 sequence (P00533 669-1210 limits assumed): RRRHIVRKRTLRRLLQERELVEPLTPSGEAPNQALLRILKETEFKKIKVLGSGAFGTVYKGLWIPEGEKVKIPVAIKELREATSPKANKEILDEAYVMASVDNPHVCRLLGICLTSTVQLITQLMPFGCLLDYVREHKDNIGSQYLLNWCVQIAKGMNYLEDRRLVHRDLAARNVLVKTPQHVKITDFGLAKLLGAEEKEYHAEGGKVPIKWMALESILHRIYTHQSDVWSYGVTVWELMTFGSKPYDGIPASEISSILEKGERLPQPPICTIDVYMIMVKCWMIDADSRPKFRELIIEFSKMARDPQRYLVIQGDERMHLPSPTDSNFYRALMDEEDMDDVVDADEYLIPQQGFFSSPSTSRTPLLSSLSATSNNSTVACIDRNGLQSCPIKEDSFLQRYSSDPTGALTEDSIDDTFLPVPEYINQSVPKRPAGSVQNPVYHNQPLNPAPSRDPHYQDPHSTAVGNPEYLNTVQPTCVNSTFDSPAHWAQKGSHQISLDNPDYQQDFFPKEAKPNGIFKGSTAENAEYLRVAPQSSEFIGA
T3 sequence (Q06187 whole entry): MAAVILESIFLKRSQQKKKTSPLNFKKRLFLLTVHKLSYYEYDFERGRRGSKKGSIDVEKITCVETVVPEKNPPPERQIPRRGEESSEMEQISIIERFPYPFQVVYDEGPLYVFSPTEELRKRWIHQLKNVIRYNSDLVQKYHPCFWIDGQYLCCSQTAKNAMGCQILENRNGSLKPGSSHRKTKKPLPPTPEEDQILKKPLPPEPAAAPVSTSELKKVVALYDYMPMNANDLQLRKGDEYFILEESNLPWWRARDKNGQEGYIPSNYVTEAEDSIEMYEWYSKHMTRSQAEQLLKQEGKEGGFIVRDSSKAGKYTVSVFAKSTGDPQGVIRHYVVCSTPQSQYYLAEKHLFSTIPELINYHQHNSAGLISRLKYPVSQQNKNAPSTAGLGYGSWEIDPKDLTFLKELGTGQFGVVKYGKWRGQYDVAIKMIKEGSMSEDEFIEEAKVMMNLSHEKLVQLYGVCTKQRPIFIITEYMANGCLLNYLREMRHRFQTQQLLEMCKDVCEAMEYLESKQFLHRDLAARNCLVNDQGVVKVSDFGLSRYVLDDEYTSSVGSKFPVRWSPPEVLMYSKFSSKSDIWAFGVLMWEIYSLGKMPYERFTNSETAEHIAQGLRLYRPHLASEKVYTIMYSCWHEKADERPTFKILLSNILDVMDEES

Regarding `COc1ccc(F)cc1C(=O)NCc1ccc(-c2nn(C3CCCC(O)C3)c3ncnc(N)c23)cc1` (single isomer, unassigned) [Example 7], the IC50 on EGFR and at TEC was 100 to 1000 nM in each case.

Turning to `COc1ccc(F)cc1C(=O)NCc1ccc(-c2nn(C3CCCC(O)C3)c3ncnc(N)c23)cc1` (single isomer, unassigned) [Example 5], the IC50 was 50 to 100 nM at EGFR, 100 to 1000 nM on TEC and 10 to 50 nM on BTK kinase.

On to `COc1ccc(F)cc1C(=O)NCc1ccc(-c2nn([C@H]3CC[C@H](CO)CC3)c3ncnc(N)c23)cc1` [Example 56, trans-N-(4-(4-amino-1-((1R,4R)-4-(hydroxymethyl)cyclohexyl)-1H-pyrazolo[3,4-d]pyrimidin-3-yl)benzyl)-5-fluoro-2-methoxybenzamide], for which the IC50 on EGFR was 10 to 50 nM; at TEC, 100 to 1000 nM; at BTK kinase, at most 10 nM.

Turning to `COc1ccc(F)cc1C(=O)NCc1ccc(-c2nn(C3CCC(CO)OC3)c3ncnc(N)c23)cc1` (single isomer, unassigned) [Example 18, N-(4-(4-amino-1-(6-(hydroxymethyl)tetrahydro-2H-pyran-3-yl)-1H-pyrazolo[3,4-d]pyrimidin-3-yl)benzyl)-5-fluoro-2-methoxybenzamide], the half-inhibitory concentration (IC50) is 50 to 100 nM on EGFR, 100 to 1000 nM on TEC and at most 10 nM on BTK kinase.

Turning to `COc1ccc(F)cc1C(=O)NCc1ccc(-c2nn(C3CCC(O)CC3)c3ncnc(N)c23)cc1` [Example 29, N-(4-(4-amino-1-((1R,4R)-4-hydroxycyclohexyl)-1H-pyrazolo[3,4-d]pyrimidin-3-yl)benzyl)-5-fluoro-2-methoxybenzamide], the IC50 is 50 to 100 nM on EGFR, 100 to 1000 nM on TEC and at most 10 nM on BTK kinase.

Turning to `COc1ccc(F)cc1C(=O)NCc1ccc(-c2nn(C3CCC(O)C3)c3ncnc(N)c23)cc1` (single isomer, unassigned) [Example 31, N-(4-(4-amino-1-(3-hydroxycyclopentanyl)-1H-pyrazolo[3,4-d]pyrimidin-3-yl)benzyl)-5-fluoro-2-methoxybenzamide], the half-maximal inhibitory concentration (IC50) on EGFR was 100 to 1000 nM; on TEC, 100 to 1000 nM; at BTK kinase, at most 10 nM.

As for `COc1ccc(F)cc1C(=O)NCc1ccc(-c2nn(C3CCCC(O)C3)c3ncnc(N)c23)cc1` (single isomer, unassigned) [Example 8], the IC50 fell in the range of 100 to 1000 nM on EGFR and 1000 to 10000 nM at TEC.

On to `COc1ccc(F)cc1C(=O)NCc1ccc(-c2nn([C@H]3CC[C@@H](O)CC3)c3ncnc(N)c23)cc1` [Example 30, N-(4-(4-amino-1-((1S,4S)-4-hydroxycyclohexyl)-1H-pyrazolo[3,4-d]pyrimidin-3-yl)benzyl)-5-fluoro-2-methoxybenzamide], for which the IC50 was 50 to 100 nM on EGFR, 100 to 1000 nM on TEC and at most 10 nM on BTK kinase.

In the case of `COc1ccc(F)cc1C(=O)NCc1ccc(-c2nc(C3CCCC(O)C3)n3ccnc(N)c23)cc1` (stereo not shown) [Example 20, N-(4-(8-amino-3-(3-hydroxycyclohexanyl)imidazo[1,5-a]pyrazin-1-yl)benzyl)-5-fluoro-2-methoxybenzamide], the IC50 at EGFR is 10 to 50 nM; at TEC it was 100 to 1000 nM; on BTK kinase it was at most 10 nM.

Turning to `COc1ccc(F)cc1C(=O)NCc1ccc(-c2nn([C@H]3CC[C@@H](CO)CC3)c3ncnc(N)c23)cc1` [Example 55, cis-N-(4-(4-amino-1-((1S,4S)-4-(hydroxymethyl)cyclohexyl)-1H-pyrazolo[3,4-d]pyrimidin-3-yl)benzyl)-5-fluoro-2-methoxybenzamide], the figures for the 50% inhibitory concentration (IC50) at EGFR, on TEC and on BTK kinase were 10 to 50 nM, 100 to 1000 nM and at most 10 nM, respectively.

In the case of `COc1ccc(F)cc1C(=O)NCc1ccc(-c2cc(C3CCC(CO)OC3)n3ncnc(N)c23)cc1` (single isomer, unassigned) [Example 59, N-(4-(4-amino-7-(6-(hydroxymethyl)tetrahydro-2H-pyran-3-yl)pyrrolo[2,1-f][1,2,4]triazin-5-yl)benzyl)-5-fluoro-2-methoxybenzamide], the half-maximal inhibitory concentration (IC50) on EGFR lay within 10 to 50 nM; at TEC, 1000 to 10000 nM; on BTK kinase it was 10 to 50 nM.

With `COc1ccc(F)cc1C(=O)NCc1ccc(-c2nc(C3CCCC(O)C3)n3ccnc(N)c23)cc1` (single isomer, unassigned) [Example 22, N-(4-(8-amino-3-(3-hydroxycyclohexanyl)imidazo[1,5-a]pyrazin-1-yl)benzyl)-5-fluoro-2-methoxybenzamide], the results for the IC50 on EGFR, at TEC and on BTK kinase were 10 to 50 nM, 100 to 1000 nM and at most 10 nM, respectively.

Turning to `COc1ccc(F)cc1C(=O)NCc1ccc(-c2cc(C3CCC(CO)OC3)n3ncnc(N)c23)cc1` (single isomer, unassigned) [Example 60, N-(4-(4-amino-7-(6-(hydroxymethyl)tetrahydro-2H-pyran-3-yl)pyrrolo[2,1-f][1,2,4]triazin-5-yl)benzyl)-5-fluoro-2-methoxybenzamide], the IC50 on EGFR was at most 10 nM; on TEC, 100 to 1000 nM; on BTK kinase, at most 10 nM.

With `COc1ccc(F)cc1C(=O)NCc1ccc(-c2nn(C3CCCC(O)C3)c3ncnc(N)c23)cc1` (single isomer, unassigned) [Example 6], the IC50 was 50 to 100 nM on EGFR, 100 to 1000 nM on TEC and at most 10 nM at BTK kinase.

As to `COc1ccc(F)cc1C(=O)NCc1ccc(-c2nn(C3CCCC(O)C3)c3ncnc(N)c23)cc1` (stereo not shown) [Example 4], the half-inhibitory concentration (IC50) was 100 to 1000 nM on EGFR, 100 to 1000 nM at TEC and at most 10 nM at BTK kinase.
